Entries after “also recorded” stand apart in the source; their conditions may differ.
Tests used:
[1] = test system: A549 xenograft; settings: for reduction in tumor growth as a single agent: A549, FIG. 9A, erlotinib 100 mg/kg/day oral gavage
Method: (§1) Mice were removed from the study when their tumor size reached 800 mm^3, and the animals remaining in each group (% remaining) were plotted. C. […] 12A11 and anti-VEGF was administrated IP at 30 mg/kg and 1 mg/kg, respectively, twice a week, starting when the mean tumor size reached 100 mm^3 (day 0). […] Cell lysates from tumors were analyzed by Western blot for Axl expression. […] Tumors from mice treated as above in D were excised at 0 and 72 hr post dosing and tumor vasculature was visualized by staining with MECA32 immunohistochemistry and quantified by image analysis (expressed as microns square).
All studies were conducted in accordance with the “Guide for the Care and Use of Laboratory Animals” (NIH), and approved by the Institutional Animal Care and Used Committee (IACUC). A total of 5×10^6 (A549) or 10^7 cells in matrigel (MDA-MB-231) were implanted subcutaneously into right flank of nude (A549) or SCID mice (MDA-MB-231), respectively. When the average tumor sized reached 100 mm^3, mice were randomized and divided into different treatment groups (n=10 for each group). Anti-Axl or control IgG1 antibodies were at administrated at 10-30 mg/kg, anti-VEGF at 1-2 mg/kg, via intraperitoneal injection (IP), twice weekly. Erlotinib was administrated by oral gavage at 100 mg/kg/day. Paclitaxel and carboplatin were administrated subcutaneously at 6.25 mg/kg/day for 5 days, and 100 mg/kg for a single dose, respectively, at the beginning of the treatment. Statistic analyses were performed using Anova two-way for comparison of tumor growth in different treatment groups.

[2] = test system: MDA-MB-231 xenograft; experiment: MDA-MB-231 xenograft tumor growth; format: in vivo, SCID mice
[3] = test system: MDA-MB-231 breast cancer cells; experiment: MDA-MB-231 metastasis after tail vein injection (bioluminescence); format: in vivo, SCID mice
Method: A. Bioluminescence imaging 4 weeks after tail vein injection of tumor cells. Mice were injected intraperitoneally (i.p.) with 200 μL of 25 mg/ml D-luciferin (Invitrogen) in PBS and were anesthetized during imaging using isoflurane via nose cone. Bioluminescence images were acquired on the Photon Imager (Biospace Lab, Paris, France) that has an intensified charge-coupled device camera. B. H & E staining of the tibia sections.
For metastasis studies, 5×10^5 MDA-MB-231 cells stably transfected with a luciferase reporter gene (Li et al, 2009) were implanted into SCID mice via tail vein injection. Metastasis of tumor cells to various organs was monitor by bioluminescence detection as described (Li et al, 2009).

[4] = test system: tumor-associated macrophages; experiment: Cytokine/chemokine secretion from tumor-associated macrophages of MDA-MB-231 xenografts; format: in vivo, mice; settings: MDA-MB-231 tumors treated one week, 20 mg/kg, versus control antibody
Method: (§2) Cell lysates from tumors were used in Western blot analysis for Axl expression. […] F. Axl is highly expressed in infiltrating macrophages of primary human breast cancer. Immunohistochemistry was used to examine 79 primary tumors. 21% of these tumors express high levels of Axl in the infiltrating macrophages. Macrophages were identified by staining with anti-CD68, and expression of Axl on macrophages was determined by anti-Axl/CD68 dual IHC. Serial sections were used. […] Tumor associated macrophages were isolated by sorting for F4/80 positive cells and cultured overnight. Cytokines and chemokines secreted into the medium were measured using the Bio-Plea mouse cytokine assay kit.
Tumors were dissected, chopped into small pieces and incubated in RPMI1640 medium with 2.5% FBS, 0.2 units/ml Liberase Blendzymes II and 5 units/ml DNaseI, (Roche). Tumor cells were disassociated using MACS Dissociator (Miltenyi Biotec) and maintained for 20 minutes at room temperature. EDTA (final concentration 0.002%) was added to stop the reaction. Single cell suspensions were prepared, and red blood cells were removed using RBC lysis buffer (eBioscience). […] Cultured media was collected and the levels of cytokines and chemokines were determined using Bio-Plex mouse cytokine assays (Bio-Rad) according to manufacturer's instructions.

[5] = test system: Akt; experiment: Gas6-induced Akt phosphorylation in H1299 cells (Western blotting); format: cell-based, human; settings: pre-incubated 4 hrs, Gas6 30 minutes
Method: (§3) A-B. Affinity measurement of YW327.6S2 using BIAcore. Association rates (kon) and dissociation rates (koff) were calculated using the one-to-one Langmuir binding model. The equilibrium dissociation constant (Kd) was derived as the […]. C. […] Plates were coated with anti-human IgG Fc, and then incubated with human Axl, Mer, Tyro3 Fcs, mouse or cynomolgus AxlFcs. After washing, isotype control antibody or YW327.6S2 was added and followed by HRP conjugated anti-human IgG. […] FIG. 7D: ELISA. Plates were coated with anti-human IgG Fc and incubated with human Axl-Fc. After washing, Gas6 was added with or without antibodies. Binding of Gas6 was detected by biotylated anti-Gas6 antibody and streptavidin-HRP conjugate. FIG. 7E: FACS. […] Binding of Gas6 to the cell surface was detected by biotylated anti-Gas6 antibody and streptavidin-PE conjugate. […] Phosphorylated Axl was measured by ELISA (upper panel), and phosphorylated Akt by Western Blotting analysis (lower panel). […] Cell viability was measured by CellTiter Glo assay.

[6] = test system: A549 xenograft tumors; experiment: Cleaved caspase 3 and Ki67 IHC of A549 xenograft tumors; format: in vivo, mice; settings: A549 tumors treated two weeks, versus control
Method: B. Kaplan-Meier curve of various treatment groups. […] C. 12A11 enhances the effect of anti-VEGF.
Xenograft tumor samples were fixed in 10% neutral buffered formalin, processed, embedded in paraffin, and sectioned at 4 μm. Thin sections were then treated with primary antibodies for Ki67, cleaved caspase 3 and MECA32, followed by biotinylated secondary antibodies and the DAB chromagen.

[7] = test system: cynomolgus Axl; experiment: Cross reaction ELISA, cynomolgus Axl; format: binding
Method: as §3
ELISA assays were performed as follows: goat anti-human IgG Fc coated plates were blocking with 0.5% BSA, PBS, 0.05% Tween 20 (PBST). […] Secreted Ang-2 and DKK3 was measured using R&D ELISA kit, according to the manufacturer's instruction. Axl expression on cell surface was determined by FACS using standard techniques. […] Samples were analyzed on BD FACScalibur Flow Cytometer.

[8] = test system: tumor vasculature; experiment: Intratumoral vascular density (MECA32) in A549 xenograft tumors; format: in vivo, mice
Method: as §1
(§4) Tumor samples were stained with MECA32, a pan endothelial cell marker. Images were acquired by the Ariol SL-50 automated slide scanning platform (Genetix Ltd.; Hampshire, UK) at 100× final magnification. Tumor-specific areas were exported for analysis in the Metamorph software package (MDS Analytical Technologies; Ontario, Canada) as individual 8-bit images. The brown DAB-specific staining was isolated from the Hematoxylin counterstain using a blue-normalization algorithm as described (Brey et al, 2003). […] Area measurements were recorded for individual vessels, as well as the tumor and non-tumor areas in each image. Raw values based on image analysis were analyzed using the JMP 8.0 software (SAS Institute, Inc. North Carolina, USA). […]

[9] = test system: tumor vasculature; experiment: Intra-tumoral vascular density (MECA32) in MDA-MB-231 xenograft tumors; format: in vivo, SCID mice; settings: MDA-MB-231 tumors
Method: as §2
as §4, with “images.” for “images. The brown DAB-specific staining was isolated from the Hematoxylin counterstain using a blue-normalization algorithm as described (Brey et al, 2003).”

[10] = target: T1, human Axl ECD-His protein (human, UniProt P30530 26-451); experiment: SPR (BIAcore-3000); anti-Axl human IgG captured by anti-human IgG, human Axl ECD-His injected
T1 construct: also called Hu Axl; not shown: His tag
T1 sequence (P30530 other isoform, or with tags, fused parts or gaps): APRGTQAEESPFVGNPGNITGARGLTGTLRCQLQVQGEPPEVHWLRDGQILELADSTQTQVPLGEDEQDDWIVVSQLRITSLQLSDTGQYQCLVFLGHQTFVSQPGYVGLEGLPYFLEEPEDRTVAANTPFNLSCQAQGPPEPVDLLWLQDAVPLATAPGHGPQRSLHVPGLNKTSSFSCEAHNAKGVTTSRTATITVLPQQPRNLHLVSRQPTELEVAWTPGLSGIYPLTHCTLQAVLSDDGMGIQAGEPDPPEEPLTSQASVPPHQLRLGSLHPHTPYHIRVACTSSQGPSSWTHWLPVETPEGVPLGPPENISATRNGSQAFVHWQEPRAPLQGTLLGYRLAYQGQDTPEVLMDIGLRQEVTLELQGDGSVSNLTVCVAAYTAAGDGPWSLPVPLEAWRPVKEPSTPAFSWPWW

## C#Cc1cccc(Nc2ncnc3cc(OCCOC)c(OCCOC)cc23)c1 [erlotinib, reference compound]
[1]
  reduction in tumor growth as a single agent: 30%

## YW327.6S2: Affinity matured phage-derived human anti-Axl monoclonal antibody, from clone YW327.6
[2]; 20 mg/kg IP twice a week
  reduction of tumor growth, antibody alone: 25%
[2]; 20 mg/kg with anti-VEGF 2 mg/kg
  reduction in tumor growth, combination therapy with anti-VEGF: 50%
[3]; four weeks after injection, control group total 18
  sites detected by bioluminescence, total for the entire group: 7
[3]; versus control antibody
  metastasis of MDA-MB-231 cells (sites detected by bioluminescence), in words: significantly reduced; also recorded: reduces
[4]
  inflammatory cytokines and chemokines produced by TAMs: much lower levels; also recorded: inhibits
[1]
  reduction in tumor growth as a single agent: 30%
[1]; A549, YW327.6S2 10 mg/kg or anti-VEGF 1 mg/kg IP twice a week
  tumor growth inhibition by single agent: 30%
[1]; A549, co-administration with anti-VEGF
  duration of tumor stasis after treatment cessation: at least 4 weeks
[1]; A549, combination with anti-VEGF 1 mg/kg
  effect on the anti-tumor effect of anti-VEGF: enhances
[1]; A549, in combination with anti-VEGF
  tumor re-growth from last dose to day 85: no tumor re-growth
[1]; A549, in combination with anti-VEGF, day 85
  survival at end of experiment (Kaplan-Meier, tumor size 800 mm^3 cutoff): survival of all the animals
[1]; A549, in combination with anti-VEGF, dosed 60 days, followed to day 85
  delay of tumor growth compared to a single agent: significantly delayed tumor growth
[1]; mouse, in vivo
  reduction of tumor growth rate in combination with erlotinib: more than 50%
  tumor growth inhibition by the combination treatment: 60%
[5]
  Gas6-induced phosphorylation of Akt: blocks
[6]
  Ki67 positive nuclei: no significant difference
  cleaved caspase 3 (CC3), apoptosis: increased; also recorded: induces apoptosis
[7]
  binding to cynomolgus Axl: binds; also recorded: cross reacts
[8]
  intratumoral vascular density, antibody alone: did not significantly reduced
  intratumoral vascular density, combination with anti-VEGF: significant decrease; also recorded: enhances the effect of anti-VEGF in reducing intra-tumoral vascular density
[9]
  intra-tumoral vascular density, single antibody versus control: significantly reduced; also recorded: reduces
  tumor associated vascular density, combination with anti-VEGF: further reduction

B1: YW327.6S2 (antibody, V domains shown)
VH: EVQLVESGGGLVQPGGSLRLSCAASGFSLSGSWIHWVRQAPGKGLEWVGWINPYRGYAYYADSVKGRFTISADTSKNTAYLQMNSLRAEDTAVYYCAREYSGWGGSSVGYAMDYWGQGTLV
VL: DIQMTQSPSSLSASVGDRVTITCRASQDVSTAVAWYQQKPGKAPKLLIYSASFLYSGVPSRFSGSGSGTDFTLTISSLQPEDFATYYCQQSYTTPPTFGQGTKVEIKR
[10]
  Kd: ~1 nM

— patent publication USRE47761E1, “Anti-axl antibodies and methods of use” (Genentech, Inc., priority 2010, dated 2019)
